Entries after “also recorded” stand apart in the source; their conditions may differ. Marks after values point to notes of the source that are not given here.
Tests used:
Format in all cases: cell-based, Mycobacterium avium subsp hominissuis 104 (MAH104)
[1] = system: intracellular MAH 104 in THP-1 macrophages; experiment: Treatment of MAH inside human THP-1 macrophages with antibiotics and metabolites (CFU); conditions: for CFU/ml of macrophage lysate, 2 h: 2 h (baseline); for CFU/ml of macrophage lysate, 4 days: clarithromycin 16 μg/ml, amikacin 4 μg/ml, none 8.2 +/− 0.3 × 10^5
Protocol: Human THP-1 cell line (TIB-202) (American Type Culture Collection, Manassas, Va.) was cultivated in RPMI-1640 medium with 10% of heat-inactivated fetal bovine serum (FBS, GEMINI B10-PRODUCTS, Sacramento, Calif.), at 37° C. with 5% CO2. The THP-1 cells were maintained in 75 cm^2 tissue culture flasks. The differentiation of THP-1 monocytes into macrophages with PMA (phorbol 12-myristate 13-acetate) (SIGMA ALDRICH) and intracellular antibiotic killing assays were performed as previously described (Rojony et al., Clinical proteomics 2019; 16:39). […] As a negative control, differentiated THP-1 cells were incubated without any antibiotics and with no metabolites. THP-1 cells were replenished with new media containing antibiotics, or no antibiotic, every other day. Cells were lysed at 2 h (baseline) and day 4 and subsequently the number of viable bacteria was determined by CFU counting on 7H10 agar plates.

[2] = system: MAH (strain 104) in established biofilms; experiment: Treatment of established MAH biofilms with antibiotics and metabolites (CFU); conditions: for killing capacity of clarithromycin: established M. avium 104 biofilms, 72 hours, FIG. 4A-D; for CFU/ml at 14 days: established biofilms, clarithromycin 16 μg/ml, amikacin 4 μg/ml, 0.05% propionic or butyric acid, 0.2% glycerol, none 4.2 +/− 0.5 × 10^8
Protocol: To assess the antibiotic tolerance of MAH biofilms to amikacin (4 μg/ml) and clarithromycin (16 μg/ml), biofilms were formed for 14 days as described herein. […] As a negative control, biofilms were incubated only with non-supplemented 7H9 without any antibiotics. […] Subsequently, 100 μl of 0.02% of Triton X-100 (final concentration 0.01%) was added to the established biofilms to mix, dilute and perform CFU analysis with the entire population of biofilms (attached and unattached).
Mycobacteria biofilms were first established and then treated or not treated with antibiotics. In parallel, biofilms were also co-treated with antibiotics and the targeted metabolites.

[3] = system: M. avium 104 static biofilms; experiment: Static biofilm formation in the presence of metabolites (crystal violet); conditions: for biofilm formation with 1% and 0.5% of fatty acid: 7H9, 7 days at 37° C., crystal violet
Protocol: Static biofilms were used in the present study as described previously (Rose S J, Bermudez L E., Infection and Immunity 2014; 82:405-12). Briefly, mycobacteria were taken from 7H10 agar plates and resuspended in deionized water (10^9 of colony forming units/ml; CFU/ml). The bacterial suspension was then washed 3 times with deionized water to remove any remaining of 7H10 media (3500 rpm for 20 minutes at 20° C.). After washing, the MAH104 were resuspended in 7H9 medium without any carbon sources (OADC, glycerol, tween 20 and tween 80) (non-supplemented 7H9) and suspensions were left alone to allow clumped bacteria to settle. The top half of the suspension was transferred to new tube and adjusted to 1×10^8 CFU/ml, using visual turbidity and optical density. Suspensions were inoculated in 96-well polystyrene plates (BD, Franklin Lakes, N.J.) (100 μl for each well [or 10^7 bacteria per well]) and biofilms were formed at 37° C. for 7 days or for 14 days when indicated. […] The raw O.D. at 570 nm values were discounted from O.D. 570 nm average of blank wells (wells with only 7H9 media).
(§1) Assays with biofilms incubated with propionic acid, butyric acid, and glycerol were performed to test whether these metabolites affect the formation of biofilms. All the experiments were made in non-supplemented 7H9. The effect of these metabolites was evaluated during biofilm formation, in pre-established biofilms and in M. avium cells pre-attached to polystyrene. To evaluate the effect of targeted metabolites during biofilm formation, mycobacteria suspensions were prepared and inoculated in 96 wells polystyrene plates, as already described, and biofilms were formed in the presence or not of the short-chain fatty acids at different concentrations (1%, 0.5%, 0.1%, 0.05% and 0.01%). For glycerol, only 0.2% was used. The biofilms were formed in 7H9 media at 37° C. for 7 days. For pre-established biofilms, MAH104 was again inoculated in 96 wells plates and biofilms were formed as described herein. […] It was also evaluated whether these metabolites could promote the growth of MAH104 cells present in biofilms through the measurement of […] every 24 hours. Finally, mycobacteria suspension with low density made in 7H9 broth (containing 1×10^6 bacteria/ml) were seeded in 96 wells polystyrene plates and incubated for 7 days at 37° C. […] The growth of pre-attached bacterial cells was followed every 24 hours through O.D.595 nm. The biofilm formation was evaluated by crystal violet.
The next step was to evaluate the capacity of tested substrates to promote the growth of mycobacteria cells that are present in biofilms. […] MAH 104 cells in the presence of non-supplemented 7H9 were used as a negative control. […]

sessile MAH104 cells = experiment: Growth and biofilm formation of pre-attached (sessile) cells in nutrient-limited media; conditions: for O.D.570 nm of sessile MAH104 (crystal violet, biofilm formation): 0.05% fatty acids in non-supplemented 7H9, 7 days, blank 0.091±0.007; for growth of sessile forms: 0.2% glycerol or 0.05% fatty acids in non-supplemented 7H9, 7 days at 37° C., O.D.595 nm
Protocol: as §1
Low mycobacterial cells density (10^6/ml) resuspended in non-supplemented 7H9 media were inoculated in 96-well plates and incubated for 7 days at 37° C. to allow the bacteria to attach into polystyrene. The supernatant was discarded to remove planktonic cells and pre-attached bacterium was incubated for 7 days in nutrient-limited media (non-supplemented 7H9). […] The growth of sessile mycobacteria was followed by O.D.595 nm measurement and biofilm formation was determined through crystal violet (O.D.570 nm), since the multiplication of bacteria cells is linked with the formation of biofilms. No growth was observed when sessile MAH104 cells were cultivated in non-supplemented 7H9 broth. […] It is also important to highlight that the O.D.570 nm value for sessile MAH104 forms incubated with non-supplemented 7H9 (O.D.570 nm=0.11±0.039) had no significant difference in comparison with the blank (O.D.570 nm=0.091±0.007) (P=0.37), showing no biofilm formation. […] FIG. 3A-D.

[4] = system: pre-established MAH104 biofilms; experiment: Effect of metabolites on pre-established biofilms; conditions: for O.D.570 nm of pre-established biofilms (biofilm formation): 7 days at 37° C. with metabolite, 7H9 0.332±0.073
Protocol: as §1
Next, the effect of short-chain fatty acids and glycerol in pre-established biofilms was tested. In parallel, the O.D.595 nm of pre-established biofilm cultures were also measured for 7 days in order to check whether the bacterial cells in biofilm multiplied in the presence of the targeted substrates. […] In addition, we observed a significant increase in the biofilm formation (O.D.570 nm values) when mycobacteria biofilm was incubated with glycerol (7H9, O.D.570 nm=0.332±0.073; glycerol, O.D.570 nm=1.562±0.1751; P=0.0029).

| SMILES | CFU/ml of macrophage lysate, 2 h [1] | CFU/ml of macrophage lysate, 4 days [1] | killing capacity of clarithromycin [2] | CFU/ml at 14 days [2] | biofilm formation with 1% and 0.5% of fatty acid [3] | O.D.570 nm of sessile MAH104 (crystal violet, biofilm formation) (sessile MAH104 cells) | growth of sessile forms (sessile MAH104 cells) | O.D.570 nm of pre-established biofilms (biofilm formation) [4] | increase in biofilm formation in comparison with non-supplemented 7H9 ([3]; glycerol 0.2%, 7 days) [×] | O.D.595 nm of pre-established biofilm cultures ([4]; after 24 hours of culture, 7H9 media 0.452±0.049) | bacterial killing by clarithromycin and amikacin in macrophages after co-treatment ([1]; THP1 macrophages) |
| --- | --- | --- | --- | --- | --- | --- | --- | --- | --- | --- | --- |
| CCCC(=O)O [Butyric acid] | 2.0 +/− 0.4 × 10^5 CFU/ml | 8.4 +/− 0.5 × 10^5 CFU/ml | increase | 3.4 +/− 0.6 × 10^6* (1) CFU/ml | same results; also recorded: significant decrease | 0.32±0.02 | supported the growth of sessile forms | 0.490±0.121 |  |  |  |
| OCC(O)CO [Glycerol] | 3.1 +/− 0.4 × 10^5 CFU/ml | 2.0 +/− 0.5 × 10^5* (1) CFU/ml | increase | 1.1 +/− 0.3 × 10^9* CFU/ml |  |  | supported the growth of sessile forms | 1.562±0.1751 | 3.2 | 0.609±0.069 |  |
| CCC(=O)O [Propionic acid] | 2.0 +/− 0.4 × 10^5 CFU/ml | 8.0 +/− 0.2 × 10^5 CFU/ml | increase | 5.5 +/− 0.4 × 10^6*(1) CFU/ml | unable to form biofilm; also recorded: significant decrease | 0.25±0.01 | supported the growth of sessile forms | 0.3855±0.048 |  |  | increased significantly |
